For the test, the target named is human O-GlcNAcase (Homo sapiens (Human), UniProt O60502). Briefly: Assay for determination of KI values for inhibition of O-GlcNAcase activity (fluorescence-based hOGA). The class given is biochemical. The settings on record: purified human O-GlcNAcase, 4-Methylumbelliferyl N-acetyl-β-D-glucosaminide substrate, pH 7.0, Cheng-Prusoff. As for the experimental part:
Assay for Determination of KI Values for Inhibition of O-GlcNAcase Activity
Experimental Procedure for Kinetic Analyses:
Enzymatic reactions are carried out in a reaction containing 50 mM NaH2PO4, 100 mM NaCl and 0.1% BSA (pH 7.0) using 2 mM 4-Methylumbelliferyl N-acetyl-β-D-glucosaminide dihydrate (Sigma M2133) dissolved in ddH2O, as a substrate. The amount of purified human O-GlcNAcase enzyme used in the reaction is 0.7 nM. Test compound of varying concentrations is added to the enzyme prior to initiation of the reaction. The reaction is performed at room temperature in a 96-well plate and is initiated with the addition of substrate. The production of fluorescent product is measured every 60 sec for 45 min with a Tecan Infinite M200 plate-reader with excitation at 355 nm and emission detected at […], with 4-Methylumbelliferone (Sigma M1381) used to produce a standard curve. The slope of product production is determined for each concentration of compound tested and plotted, using standard curve fitting algorithms for sigmoidal dose response curves. The values for a four parameter logistic curve fit of the data are determined.

SMILES strings stand for the structures.

Sequence of human O-GlcNAcase (O60502 whole entry): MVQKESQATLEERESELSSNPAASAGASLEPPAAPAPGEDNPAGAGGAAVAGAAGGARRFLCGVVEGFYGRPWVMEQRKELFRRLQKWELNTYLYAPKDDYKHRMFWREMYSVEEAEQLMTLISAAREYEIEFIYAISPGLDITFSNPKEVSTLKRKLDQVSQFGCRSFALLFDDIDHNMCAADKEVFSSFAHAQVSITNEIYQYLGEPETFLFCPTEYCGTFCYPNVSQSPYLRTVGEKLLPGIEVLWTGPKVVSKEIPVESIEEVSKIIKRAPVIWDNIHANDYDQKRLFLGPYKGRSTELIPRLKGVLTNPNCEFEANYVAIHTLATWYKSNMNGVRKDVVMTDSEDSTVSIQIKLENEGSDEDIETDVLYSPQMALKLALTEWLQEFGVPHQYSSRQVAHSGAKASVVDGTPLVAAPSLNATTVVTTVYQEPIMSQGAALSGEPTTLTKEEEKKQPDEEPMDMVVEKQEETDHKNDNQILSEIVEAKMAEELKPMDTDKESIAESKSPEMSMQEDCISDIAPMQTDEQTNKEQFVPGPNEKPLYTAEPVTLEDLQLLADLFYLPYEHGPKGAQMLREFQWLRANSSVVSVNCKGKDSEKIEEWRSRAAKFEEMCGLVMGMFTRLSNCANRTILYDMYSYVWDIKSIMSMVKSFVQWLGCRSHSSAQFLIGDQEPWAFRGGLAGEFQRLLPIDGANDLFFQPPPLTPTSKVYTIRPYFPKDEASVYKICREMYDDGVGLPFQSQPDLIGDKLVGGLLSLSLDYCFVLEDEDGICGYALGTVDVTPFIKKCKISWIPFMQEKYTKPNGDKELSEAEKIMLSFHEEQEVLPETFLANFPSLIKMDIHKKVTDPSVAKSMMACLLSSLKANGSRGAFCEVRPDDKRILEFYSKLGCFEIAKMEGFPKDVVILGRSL

`OC[C@H]1C[C@@H]2OC(NCCF)=N[C@@H]2[C@@H](O)[C@@H]1O` [Example 32, (3aR,4R,5R,6R,7aS)-2-((2-fluoroethyl)amino)-6-(hydroxymethyl)-3a,4,5,6,7,7a-hexahydrobenzo[d]oxazole-4,5-diol 2,2,2-trifluoroacetate]: affinity was put at a Ki of 2.5 nM.

For `CN(C)C1=N[C@H]2[C@H](O)[C@@H](O)[C@H](CO)C[C@H]2S1` [Example 23, (3aS,4S,5S,6S,7aR)-2-(dimethylamino)-6-(hydroxymethyl)-3a,4,5,6,7,7a-hexahydrobenzo[d]thiazole-4,5-diol], the Ki turned out to be 484 nM. The figure for `CN(C)C1=N[C@@H]2[C@@H](O)[C@H](O)[C@@H](CO)C[C@@H]2S1` [Example 22, (3aR,4R,5R,6R,7aS)-2-(dimethylamino)-6-(hydroxymethyl)-3a,4,5,6,7,7a-hexahydrobenzo[d]thiazole-4,5-diol] is 0.5 nM; for `CCNC1=N[C@@H]2[C@@H](O)[C@H](O)[C@@H](CO)C[C@@H]2O1` [Example 9, (3aR,4R,5R,6R,7aS)-2-(ethylamino)-6-(hydroxymethyl)-3a,4,5,6,7,7a-hexahydrobenzo[d]oxazole-4,5-diol] it is 0.6 nM; for `OC[C@H]1C[C@@H]2OC(N3CCC3)=N[C@@H]2[C@@H](O)[C@@H]1O` [Example 18, (3aR,4R,5R,6R,7aS)-2-(azetidin-1-yl)-6-(hydroxymethyl)-3a,4,5,6,7,7a-hexahydrobenzo[d]oxazole-4,5-diol] it is 0.13 nM.

Turning to `CNC1=N[C@@H]2[C@@H](O)[C@H](O)[C@@H](CO)C[C@@H]2S1` [Example 26, (3aR,4R,5R,6R,7aS)-2-(methylamino)-6-(hydroxymethyl)-3a,4,5,6,7,7a-hexahydrobenzo[d]thiazole-4,5-diol], the affinity, expressed as Ki, was 0.2 nM.

Broadly, the Ki is a dissociation constant, usually derived from enzyme kinetics or from competition with a known ligand. High values mean a looser hold on the target, low ones a stronger hold on the target.

The values are drawn from patent publication US9120781B2, “Selective glycosidase inhibitors and uses thereof” (Simon Fraser University, priority 2010, dated 2015).
